Our source for the EC50 values is patent EP1257544B1, “PIPERAZINE AND PIPERIDINE DERIVATIVES FOR TREATMENT OR PREVENTION OF NEURONAL DAMAGE” (VERTEX PHARMACEUTICALS INCORPORATED, priority 2000, dated 2001).

pEC50: −log10 of the molar value. Where a name gives a salt, the structure may show the parent alone.

Usually pEC50 stands for the EC50 on a negative log10 scale, so that one unit is a factor of ten.

The assay concerns Dissociated VM cells. Description: Neuroprotection Assay (NMDA-induced neuroexcitotoxic injury, high affinity 3H-dopamine uptake). Conditions: embryonic day 15 rat ventral mesencephalic cultures, NMDA (100-400 µM) for 20 hours. Format: cell-based, Sprague-Dawley rat. An excerpt:
The neuroprotective activity of the compounds of this invention may be assayed using rat embryo ventral mesencephalic cells in culture which are subsequently exposed to the glutamate receptor agonist NMDA. This assay is described in detail in the example section.
The ventral mesencephalic region was dissected out of embryonic day 15 Sprague-Dawley rat embryos (Harlan), dissociated into single cell suspension by a combination of trypsinization and trituration (Costantini et al., Neurobiol Dis., pp. 97-106 (1998). Dissociated VM cells were plated into poly-L-ornithine-coated 96-well plates at a density of 85,000 cells/well in 100 uL of DMEM supplemented with 18% heat-inactivated horse serum, 0.24% glucose, 2 mM glutamine and 50 u/ml pernicillin/streptomycin and incubated in a 5% CO2 incubator. After one day in culture (DIV1), the medium was replaced with 100 µL of a defined medium (DMEM supplemented with 1x N2 cocktail (Gibco-BRL), 0.12% glucose, 2 mM glutamine, and 50 units/ml penicillin/streptomycin) containing DMSO or various concentrations of the compounds of this invention. On DIV5, neuroexcitotoxic injury was induced by the addition of various concentrations of the glutamate receptor agonist NMDA (100-400 µM). Cultures were incubated with the neurotoxin for 20 hours and the effects of neurophilin compounds were assessed using high affinity ^3H-dopamine uptake according to a procedure published by Park and Mytilineou [Brain Res., 599, pp. 83-97 (1992)].
In the case of `CCN1CCCC[C@H]1C(=O)N1CCN(Cc2ccc(Cl)c(Cl)c2)CC1` [Compound 69, [4-(3,4-Dichlorobenzyl)-piperazin-1-yl]-((2S)-1-ethylpiperidin-2-yl)-methanone dihydrochloride], the pEC50 is greater than 7.00.
Regarding `CCN1CCCC[C@H]1C(=O)N1CCN(Cc2ccc3c(c2)OCO3)CC1` [Compound 71, (4-Benzo[1,3]dioxol-5-ylmethylpiperazin-1-yl)-((2S)-1-ethylpiperidin-2-yl)-methanone dihydrochloride], the pEC50 is less than 6.30.
Take `CCN1CCCC[C@H]1C(=O)N1CCN(CCc2ccccc2)CC1` [Compound 74, ((2S)-1-Ethylpiperidin-2-yl)-(4-phenethylpiperazin-1-yl)-methanone dihydrochloride]: the pEC50 is less than 6.30.
To `CCN1CCCC[C@H]1C(=O)N1CCN(Cc2ccc(OC)cc2)CC1` [Compound 75, ((2S)-1-Ethylpiperidin-2-yl)-[4-(4-methoxybenzyl)-piperazin-1-yl]-methanone] belongs less than 6.30; to `CCN1CCCC[C@H]1C(=O)N1CCN(Cc2ccc(F)cc2)CC1` [Compound 76, ((2S)-1-Ethylpiperidin-2-yl)-[4-(4-fluorobenzyl)-piperazin-1-yl] methanone], 6.30 to 7.00.
To `CCN1CCCC[C@H]1C(=O)N1CCN(Cc2ccc(F)c(F)c2)CC1` [Compound 77, [4-(3,4-Difluorobenzyl)-piperazin-1-yl]-((2S) -1-ethylpiperidin-2-yl)-methanone] belongs 6.30 to 7.00.
For `CCN1CCCC[C@H]1C(=O)N1CCN(C(=O)c2ccccc2)CC1` [Compound 78, [4-((2S)-1-Ethylpiperidine-2-carbonyl)-piperazin-1-yl]-phenyl methanone], the pEC50 is less than 6.30.
For the compound `CCN1CCCC[C@H]1C(=O)N1CCN(C(=O)c2ccc(F)cc2)CC1` [Compound 79, ((2S)-1-Ethylpiperidin-2-yl)-[4-(4-fluorobenzoyl)-piperazin-1-yl] methanone hydrochloride], the pEC50 is 6.30 to 7.00.
Regarding `CCN1CCCC[C@H]1C(=O)N1CCN(S(=O)(=O)c2ccccc2)CC1` [Compound 80, (4-Benzenesulfonylpiperazin-1-yl)-((2S)-1-ethylpiperidin-2-yl)-methanone hydrochloride], the pEC50 is less than 6.30.
With `CCN1CCCC[C@H]1C(=O)N1CCN(S(=O)(=O)c2ccc(F)cc2)CC1` [Compound 81, ((2S)-1-Ethylpiperidin-2-yl)-[4-(4-fluorobenzenesulfonyl)-piperazin-1-yl]-methanone hydrochloride], the pEC50 was less than 6.30.
In the case of `CCN1CCCC[C@H]1C(=O)N1CCC(=Cc2ccc(F)cc2)CC1` [Compound 84, ((2S)-1-Ethylpiperidin-2-yl)-[4-(4-fluorobenzylidene)piperidin-1-yl]-methanone hydrochloride], the negative-log EC50 (pEC50) is greater than 7.00.
Take `O=C([C@@H]1CCCN1Cc1ccccc1)N1CCC(=Cc2ccc(F)cc2)CC1` [Compound 85, ((2S)-1-Benzylpyrrolidin-2-yl)-[4-(4-fluorobenzylidene)piperidin-1-yl] methanone hydrochloride]: the pEC50 is greater than 7.00.
For the compound `O=C([C@@H]1CCCN1Cc1ccccc1)N1CCN(c2ccc(F)cc2)CC1` [Compound 86, ((2S)-1-Benzylpyrrolidin-2-yl)-[4-(4-fluorophenyl)piperazin-1-yl] methanone hydrochloride], the negative-log EC50 (pEC50) is greater than 7.00.
With `O=C([C@@H]1CCCN1Cc1ccccc1)N1CCN(Cc2ccc(F)cc2)CC1` [Compound 87, ((2S)-1-Benzyl-pyrrolidin-2-yl)-[4-(4-fluoro-benzyl)-piperazin-1-yl] methanone], the pEC50 is less than 6.30.
To `O=C(C1CC2CCN1CC2)N1CCC(Cc2ccc(F)cc2)CC1` (centres unmarked) [Compound 88, (1-Aza-bicyclo[2.2.2]oct-2-yl)-[4-(4-fluoro-benzyl)-piperidin-1-yl] methanone hydrochloride] belongs 6.30 to 7.00; to `CN1CCC=C(C(=O)N2CCC(Cc3ccc(F)cc3)CC2)C1` [Compound 89, [4-(4-Fluorobenzyl)piperidin-1-yl]-(1-methyl-1,2,5,6-tetrahydropyridin-3-yl) methanone hydrochloride], 6.30 to 7.00; to `CN1CCCC(C(=O)N2CCC(Cc3ccc(F)cc3)CC2)C1` (centres unmarked) [Compound 90, [4-(4-Fluorobenzyl)piperidin-1-yl]-(1-methylpiperidin-3-yl) methanone hydrochloride], greater than 7.00.
For the compound `CCN1CCCC[C@H]1CN1CCN(C(c2ccccc2)c2ccccc2)CC1` [Compound 100, 1-Benzhydryl-4-((2S)-1-ethylpiperidin-2-ylmethyl)-piperazine], the pEC50 was greater than 7.00.
Turning to `CCN1CCCC[C@H]1CN1CCC(Cc2ccccc2)CC1` [Compound 101, 4-Benzyl-1-((2S)-1-ethylpiperidin-2-ylmethyl)-piperidine], the negative logarithm of the EC50 (pEC50) is greater than 7.00.
For `Fc1ccc(CC2CCN(C[C@@H]3CCCN3Cc3ccccc3)CC2)cc1` [Compound 103, 1-((2S)-1-Benzylpyrrolidin-2-ylmethyl)-4-(4-fluorobenzyl)piperidine dihydrochloride], the pEC50 was greater than 7.00.
Consider `CO[C@@H]1C[C@@H](C(=O)N2CCC(Cc3ccccc3)CC2)N(Cc2ccccc2)C1` [Compound 153, ((2S,4R)-1-Benzyl-4-methoxypyrrolidin-2-yl)-(4-benzylpiperdin-1-yl)-methanone], for which the pEC50 is less than 6.30.
Take `COC(=O)CO[C@@H]1C[C@@H](C(=O)N2CCC(Cc3ccccc3)CC2)N(Cc2ccccc2)C1` [Compound 155, [(2S, 4R)-1-Benzyl-5-(4-benzylpiperidine-1-carbonyl)-pyrrolidin-3-yloxyl]-acetic acid methyl ester]: the pEC50 is less than 6.30.
Consider `CN1CCC(C(=O)N2CCC(Cc3ccccc3)CC2)CC1` [Compound 202], for which the negative logarithm of the EC50 (pEC50) was 6.30 to 7.00.
To `CN1CCCC(C(=O)N2CCC(Cc3ccccc3)CC2)C1` (centres unmarked) [Compound 204] belongs 6.30 to 7.00.
`CN1CCC(C(=O)N2CCN(C(c3ccc(F)cc3)c3ccc(F)cc3)CC2)CC1` [Compound 218]: the pEC50 was 6.30 to 7.00.
On to `CN1CCCC(C(=O)N2CCN(C(c3ccc(F)cc3)c3ccc(F)cc3)CC2)C1` (centres unmarked) [Compound 220], for which the pEC50 was less than 6.30.
Take `CCN1CCC(C(=O)N2CCN(c3ccc(F)cc3)CC2)CC1` [Compound 226]: the pEC50 is 6.30 to 7.00.
With `O=C(C1CCN(C/C=C/c2ccccc2)CC1)N1CCC(Cc2ccc(F)cc2)CC1` [Compound 255], the pEC50 was greater than 7.00.
Take `O=C(C1CCN(Cc2ccccc2)CC1)N1CCN(c2ccc(F)cc2)CC1` [Compound 256]: the pEC50 was 6.30 to 7.00.
`O=C(C1CCN(Cc2ccc(F)cc2)CC1)N1CCC(Cc2ccc(F)cc2)CC1` [Compound 257]: the pEC50 was 6.30 to 7.00.
Next, `C=CCN1CCC(C(=O)N2CCN(c3ccc(F)cc3)CC2)CC1` [Compound 258]: 6.30 to 7.00; `CC(C)=CCN1CCC(C(=O)N2CCN(c3ccc(F)cc3)CC2)CC1` [Compound 260]: greater than 7.00.
Regarding `O=C(C1CCN(CC2CC2)CC1)N1CCN(c2ccc(F)cc2)CC1` [Compound 262], the negative logarithm of the EC50 (pEC50) is greater than 7.00.
Next, `CC(C)CN1CCC(C(=O)N2CCN(c3ccc(F)cc3)CC2)CC1` [Compound 264]: 6.30 to 7.00; `O=C(C1CCN(C/C=C/c2ccccc2)CC1)N1CCN(c2ccc(F)cc2)CC1` [Compound 266]: 6.30 to 7.00; `CCN1CCC(C(=O)N2CCC(Cc3ccc(F)cc3)CC2)CC1` [Compound 270]: 6.30 to 7.00.
To `C=CCN1CCC(C(=O)N2CCC(Cc3ccc(F)cc3)CC2)CC1` [Compound 274] belongs less than 6.30; to `CC(C)=CCN1CCC(C(=O)N2CCC(Cc3ccc(F)cc3)CC2)CC1` [Compound 276], greater than 7.00.
